Sequences and labels used below:
B1: α51 -Casein: casein protein substrate (probably αs1-casein) (protein, UniProt P02662 16-214, looked up)
Alpha-S1-casein: RPKHPIKHQGLPQEVLNENLLRFFVAPFPEVFGKEKVNELSKDIGSESTEDQAMEDIKQMEAESISSSEEIVPNSVEQKHIQKEDVPSERYLGYLEQLLRLKKYKVPQLEIVPNSAEERLHSMKEGIHAQQKEPMIGVNQELAYFYPELFRQFYQLDAYPSGAWYYVPLGTQYTDAPSFSDIPNPIGSENSEKTTMPLW
B2: β-Casein: casein protein substrate (protein, UniProt P02666 16-224, looked up)
Beta-casein: RELEELNVPGEIVESLSSSEESITRINKKIEKFQSEEQQQTEDELQDKIHPFAQTQSLVYPFPGPIPNSLPQNIPPLTQTPVVVPPFLQPEVMGVSKVKEAMAPKHKEMPFPKYPVEPFTESQSLTLTDVENLHLPLPLLQSWMHQPHQPLPPTVMFPPQSVLSLSQSKVLPVPQKAVPYPQRDMPIQAFLLYQEPVLGPVRGPFPIIV

Entries after “also recorded” stand apart in the source; their conditions may differ. Numbered stars: 1 amine (or outer) side, 2 acyl side, 3 side chain; on linkers, the order of the positions; unused ones are H or OH. Ends that are not written are not given here. Peptide text beside a SMILES is read from it. * marks the point of attachment. pNA = O=[N+]([O-])c1ccc(N*)cc1; Suc = O=C(CCC(=O)[*:2])[*:1]; MeOSuc = COC(=O)CCC(=O)*

In one assay the target is T1, endopeptidase produced by Lactobacillus helveticus (Lactobacillus helveticus, UniProt Q6UP05).
T1 construct: N-terminus […]
T1 sequence (Q6UP05 1-643): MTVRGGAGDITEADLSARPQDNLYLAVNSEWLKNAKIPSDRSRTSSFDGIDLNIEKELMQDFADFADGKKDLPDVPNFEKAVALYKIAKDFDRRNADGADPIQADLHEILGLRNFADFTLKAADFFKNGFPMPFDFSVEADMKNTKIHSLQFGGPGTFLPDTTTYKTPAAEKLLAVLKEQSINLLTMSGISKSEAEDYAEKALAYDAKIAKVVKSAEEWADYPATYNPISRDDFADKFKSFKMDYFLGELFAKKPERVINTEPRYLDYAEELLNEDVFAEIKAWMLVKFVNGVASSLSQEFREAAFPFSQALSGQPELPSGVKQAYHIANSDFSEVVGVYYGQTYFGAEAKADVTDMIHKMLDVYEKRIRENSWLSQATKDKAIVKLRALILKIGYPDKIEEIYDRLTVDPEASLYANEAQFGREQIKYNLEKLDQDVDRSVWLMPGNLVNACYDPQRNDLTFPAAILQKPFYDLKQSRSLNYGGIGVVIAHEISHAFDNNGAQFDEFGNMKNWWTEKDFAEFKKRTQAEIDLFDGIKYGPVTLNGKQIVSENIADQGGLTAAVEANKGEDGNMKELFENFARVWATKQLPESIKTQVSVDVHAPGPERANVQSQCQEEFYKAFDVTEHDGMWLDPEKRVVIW
Briefly: Substrate specificity: hydrolysis of substrates by the endopeptidase. In kind it is biochemical. Further details: key: + represents that a substrate was hydrolyzed; - represents that a substrate was not hydrolyzed. The conditions noted are these: 2 to 5 mM substrate, 50 mM HEPES pH 7.0, 30° C., 5.0 hrs. On the procedure: The substrate specificity of the endopeptidase of the present invention was determined. In 200 μl of 2 to 5 mM substrate in 50 mM HEPES buffer, pH 7.0, 10 μl of the endopeptidase solution of the present invention in 50 mM HEPES buffer, pH 7.0, at five μg/ml was added and incubated at 30° C. for 5.0 hrs. Then, the reaction mixture was applied to reversed phase chromatography and eluted using linear increase of concentration of acetonitrile in 0.1% trifluoroacetic acid from zero to 60%. The hydrolysis was determined from the decrease of the peak area of the substrate and/or the appearance of a new peak(s) at 214 nm on the chromatogram.
Take Leu-Gly-Gly: the Hydrolysis result is “-”.

Consider Z-Phe-Ala, for which the Hydrolysis result was “-”.

Pro-Gly-Gly: the Hydrolysis entry is “-”.

For the molecule “β-Casein, f203-209: β-Casein fragment 203-209, 7 amino acid residues (GPFPIIV; UniProt P02666 218-224, looked up, fragment)”, the Hydrolysis result was “+”.

“Angiotensin (DRVYIHPFHL; Angiotensin-1; UniProt P01019 25-34, looked up)”: the Hydrolysis entry is given as “+”.

Consider κ-Casein: casein protein substrate, for which the Hydrolysis result is listed as “-”.

In the case of RPPGFSPFR [Bradykinin], the Hydrolysis result is listed as “+”.

Take Pro-Lys-Gly-Gly (PKGG): the Hydrolysis entry was “-”.

Regarding `CSCC[C@H](NC(=O)[C@H](CC(C)C)NC(=O)CNC(=O)[C@H](Cc1ccccc1)NC(=O)[C@H](Cc1ccccc1)NC(=O)[C@H](CCC(N)=O)NC(=O)[C@H](CCC(N)=O)NC(=O)[C@@H]1CCCN1C(=O)[C@H](CCCCN)NC(=O)[C@@H]1CCCN1C(=O)[C@@H](N)CCCNC(=N)N)C(N)=O` [Substance P], the Hydrolysis result was “+”.

Consider “Parathyroid hormone, human, f1-44: human parathyroid hormone fragment 1-44, 44 amino acid residues (SVSEIQLMHNLGKHLNSMERVEWLRKKLQDVHNFVALGAPLAPR; Parathyroid hormone; UniProt P01270 32-75, looked up, fragment)”, for which the Hydrolysis entry is recorded as “-”.

Regarding `CSCC[C@H](NC(=O)[C@H](Cc1ccccc1)NC(=O)CNC(=O)CNC(=O)[C@@H](N)Cc1ccc(O)cc1)C(=O)O` [Met-Enkephalin], the Hydrolysis result is reported as “+”.

Consider Met-Gly-Gly, for which the Hydrolysis result was “-”.

Leu-Leu-Leu: the Hydrolysis result is on record as “+”.

Turning to Ala-Ala-Ala-Ala (AAAA), the Hydrolysis entry is recorded as “+”.

For Phe-Val, the Hydrolysis result is listed as “-”.

Turning to `NCCCC[C@H](N)C(=O)Nc1ccc([N+](=O)[O-])cc1` [Lys-pNA], the Hydrolysis result is “-”.

Take Ala-Ala-Ala-Ala-Ala: the Hydrolysis result is recorded as “+”.

As to “Parathyroid hormone, human, f1-34: human parathyroid hormone fragment 1-34, 34 amino acid residues”, the Hydrolysis entry is recorded as “+”.

With Ala-Pro-pNA, the Hydrolysis entry is recorded as “-”.

Gly-Pro-Gly-Gly (GPGG): the Hydrolysis result is “-”.

Consider Neurotensin, for which the Hydrolysis entry is given as “+”.

For `O=C(O)CCC(=O)N[C@@H](Cc1ccccc1)C(=O)Nc1ccc([N+](=O)[O-])cc1` [Suc-Phe-pNA], the Hydrolysis result is on record as “-”.

“β-Casein, f108-113: β-Casein fragment 108-113, 6 amino acid residues (EMPFPK; UniProt P02666 123-128, looked up, fragment)”: the Hydrolysis entry is reported as “+”.

Take `O=C(Nc1ccc([N+](=O)[O-])cc1)[C@@H]1CCCN1` [Pro-pNA]: the Hydrolysis entry is listed as “-”.

As to `CC(C)C[C@H](NC(=O)[C@@H]1CCCN1C(=O)[C@H](C)NC(=O)[C@H](C)NC(=O)CCC(=O)O)C(=O)Nc1ccc([N+](=O)[O-])cc1` [Suc-Ala-Ala-Pro-Leu-pNA] (Suc-AAPL-pNA), the Hydrolysis entry is reported as “-”.

In the case of Bzl-Cys-pNA, the Hydrolysis result is recorded as “-”.

Take “Parathyroid hormone, human, f13-34: human parathyroid hormone fragment 13-34, 22 amino acid residues (KHLNSMERVEWLRKKLQDVHNF; Parathyroid hormone; UniProt P01270 44-65, looked up, fragment)”: the Hydrolysis result is “+”.

Turning to “Parathyroid hormone, human, f1-38: human parathyroid hormone fragment 1-38, 38 amino acid residues (SVSEIQLMHNLGKHLNSMERVEWLRKKLQDVHNFVALG; Parathyroid hormone; UniProt P01270 32-69, looked up, fragment)”, the Hydrolysis result is on record as “-”.

On to `COC(=O)CCC(=O)N[C@@H](CCCNC(=N)N)C(=O)N1CCC[C@H]1C(=O)N[C@@H](Cc1ccc(O)cc1)C(=O)Nc1ccc([N+](=O)[O-])cc1` [MeO-Suc-Arg-Pro-Tyr-pNA] (MeOSuc-Arg-Pro-Tyr-pNA), for which the Hydrolysis result is given as “-”.

On to Gly-Pro-Arg-Pro (GPRP), for which the Hydrolysis result is “-”.

As to Pro-Ala, the Hydrolysis result is on record as “-”.

For Insulin β-chain, the Hydrolysis result was “+”.

For the molecule Leu-Leu, the Hydrolysis result is “-”.

With β-Casomorphin, the Hydrolysis result is reported as “-”.

Turning to Pro-Gly-Lys-Ala-Arg (PGKAR), the Hydrolysis result is reported as “-”.

For Ala-Ala-Ala-Ala-Ala-Ala, the Hydrolysis entry was “+”.

In the case of Tyr-Gly-Gly, the Hydrolysis result was “-”.

Turning to Phe-Met, the Hydrolysis result was “-”.

For Dynorphin A, the Hydrolysis result is “+”.

Turning to B1, the Hydrolysis entry was “-”.

On to B2, for which the Hydrolysis entry is recorded as “-”.

Staying with this assay, now noted: substrate + LAP (leucine aminopeptidase); pH 7.0, 30° C., 5.0 hrs.
Regarding `COC(=O)CCC(=O)N[C@@H](CCCNC(=N)N)C(=O)N1CCC[C@H]1C(=O)N[C@@H](Cc1ccc(O)cc1)C(=O)Nc1ccc([N+](=O)[O-])cc1` [MeO-Suc-Arg-Pro-Tyr-pNA] (MeOSuc-Arg-Pro-Tyr-pNA), the Hydrolysis entry is on record as “+”.

In another assay the target is T1, endopeptidase produced by Lactobacillus helveticus.
Test: not given
The conditions noted are these: 0.001 to 2.0 mM inhibitor, 30 min. at 4° C.; 1 mM Tyr-Gly-Gly-Phe-Met, pH 7.0, 30° C. In kind it is biochemical. How it is done:
(§1) The influences of enzyme inhibitors on the-activity of the endopeptidase of the present invention was determined. The purified endopeptidase (0.5 μg protein/ml) in 40 mM HEPES, pH7.0, was incubated for 30 min. at 4° C. with 0.001 to 2.0 mM enzyme inhibitors. After pre-incubating the enzyme mixture for 5 min. at 30° C., 1 mM Tyr-Gly-Gly-Phe-Met (SEQ ID NO: 2) was added to start the reaction and the mixture was incubated for 20 min. at 30° C. The reaction was stopped by 10% acetic acid.
The enzyme activity was determined by reversed phase chromatography.
In the case of `O=S(=O)(O)c1cc[c]([Hg][Cl])cc1` [p-CMBS, p-chloromercuribenzenesulfonic acid], the “inhibition of endopeptidase activity by enzyme inhibitors” value (shortened to “inhibition … by enzyme inhibitors”) is “inhibited; also recorded: inhibition”.

Regarding `c1cnc2c(c1)ccc1cccnc12` [1,10-phenanthroline], the “inhibition … by enzyme inhibitors” value was “inhibited; also recorded: inhibition”.

In the case of `O=S(=O)(F)Cc1ccccc1` [phenylmethylsulfonyl fluoride], the “inhibition … by enzyme inhibitors” value is on record as “no inhibition”.

Still in this assay, the particulars now being: pH 7.
As for `O=C(O)CN(CCN(CC(=O)O)CC(=O)O)CC(=O)O` [EDTA, ethylenediaminetetraacetic acid], the “inhibition … by enzyme inhibitors” value was “inhibited; also recorded: inhibition”.

Regarding `O=C(O)CI` [iodoacetic acid], the “inhibition … by enzyme inhibitors” value was “no inhibition”.

Another assay shares this target. The assay is described as follows: Influence of metal ions on endopeptidase activity. The format is biochemical. The conditions noted are these: method according to Test example 7. How it is done: as §1
The influences of metal ions to the activity of the endopeptidase of the present invention was determined similarly by the method according to Test example 7. The enzyme activity was inhibited by Cu^2+, Zn^2+ and Fe^2+.
Regarding `[Fe+2]` [Fe^2+], the “inhibition of endopeptidase activity by metal ions” value (“inhibition … by metal ions” for short) was “inhibited”.

In the case of `[Cu+2]` [Cu^2+], the “inhibition … by metal ions” value is given as “inhibited”.

As to `[Zn+2]` [Zn^2+], the “inhibition … by metal ions” value is “inhibited”.

The values above are taken from patent US6168939A, “Endopeptidase produced by Lactobacillus helveticus” (priority 1995, dated 2001).
